The results in this text go back to ChEMBL document CHEMBL4393714, “Multi-targeting protein-protein interaction inhibitors: Evolution of macrocyclic ligands with embedded carbohydrates (MECs) to improve selectivity” (Eur J Med Chem, 2019).

Test [1] addresses Muscarinic acetylcholine receptor M3 (Homo sapiens) (UniProt P20309). Nature of the test: Displacement of [3H]4-DAMP from human recombinant muscarinic 3 receptor at 10 uM measured after 60 mins by scintillation counter method relative to control. For orientation: In a radioligand displacement assay an active substance lowers the binding of a labelled ligand.
The target of test [2] is Endothelin-1 receptor (Homo sapiens) (UniProt P25101). Nature of the test: Displacement of [125I]endothelin-1 from human recombinant ETA receptor at 10 uM measured after 120 mins by scintillation counter method relative to control.
Endothelin-1 receptor (Homo sapiens), sequence (P25101 whole entry): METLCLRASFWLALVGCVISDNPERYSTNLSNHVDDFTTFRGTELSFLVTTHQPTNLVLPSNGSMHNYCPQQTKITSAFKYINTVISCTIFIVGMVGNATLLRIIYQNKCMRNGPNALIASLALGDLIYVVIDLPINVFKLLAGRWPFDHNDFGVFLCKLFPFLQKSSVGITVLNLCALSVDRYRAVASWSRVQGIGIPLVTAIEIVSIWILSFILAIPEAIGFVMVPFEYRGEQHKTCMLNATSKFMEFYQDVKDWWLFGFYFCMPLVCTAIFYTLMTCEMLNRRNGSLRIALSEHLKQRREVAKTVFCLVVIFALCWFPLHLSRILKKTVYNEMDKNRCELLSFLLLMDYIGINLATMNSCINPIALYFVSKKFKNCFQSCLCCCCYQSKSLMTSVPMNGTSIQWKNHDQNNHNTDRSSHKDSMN
Test [3] addresses 5-hydroxytryptamine receptor 7 (Homo sapiens) (UniProt P34969). Nature of the test: Displacement of [3H]LSD from human recombinant 5-HT7 receptor at 10 uM measured after 120 mins by scintillation counter method relative to control.
The target of test [4] is Adenosine receptor A3 (Homo sapiens) (UniProt P0DMS8). Nature of the test: Displacement of [125I] AB-MECA from human recombinant A3 receptor at 10 uM measured after 120 mins by scintillation counter method relative to control.
Adenosine receptor A3 (Homo sapiens), sequence (P0DMS8 whole entry): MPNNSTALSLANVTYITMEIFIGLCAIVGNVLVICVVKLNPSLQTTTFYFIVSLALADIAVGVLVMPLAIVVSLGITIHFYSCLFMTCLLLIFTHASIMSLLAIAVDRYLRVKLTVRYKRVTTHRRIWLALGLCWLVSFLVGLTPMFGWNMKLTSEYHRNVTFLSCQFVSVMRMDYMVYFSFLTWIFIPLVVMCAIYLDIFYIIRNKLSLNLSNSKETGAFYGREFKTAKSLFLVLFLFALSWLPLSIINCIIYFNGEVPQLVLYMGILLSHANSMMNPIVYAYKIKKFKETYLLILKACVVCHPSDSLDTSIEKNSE
In test [5] the target is Substance-K receptor (Homo sapiens) (UniProt P21452). Nature of the test: Displacement of [125I]NKA from human recombinant NK2 receptor at 10 uM measured after 60 mins by scintillation counter method relative to control.
Substance-K receptor (Homo sapiens), sequence (P21452 whole entry): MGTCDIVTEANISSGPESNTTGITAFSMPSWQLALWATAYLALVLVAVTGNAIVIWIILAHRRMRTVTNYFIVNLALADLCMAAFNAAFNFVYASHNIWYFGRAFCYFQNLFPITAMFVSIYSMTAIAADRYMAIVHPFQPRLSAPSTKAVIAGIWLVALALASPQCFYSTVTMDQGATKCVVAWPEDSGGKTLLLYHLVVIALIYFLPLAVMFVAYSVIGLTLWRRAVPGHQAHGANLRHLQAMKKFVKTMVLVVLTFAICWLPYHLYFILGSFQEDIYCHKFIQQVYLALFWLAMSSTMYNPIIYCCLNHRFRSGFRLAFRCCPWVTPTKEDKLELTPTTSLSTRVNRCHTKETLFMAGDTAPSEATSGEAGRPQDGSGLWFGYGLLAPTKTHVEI
In test [6] the target is 5-hydroxytryptamine receptor 1A (Homo sapiens) (UniProt P08908). Nature of the test: Displacement of [3H]-OH-DPAT from human recombinant 5-HT1A receptor at 10 uM measured after 60 mins by scintillation counter method relative to control.
5-hydroxytryptamine receptor 1A (Homo sapiens), sequence (P08908 whole entry): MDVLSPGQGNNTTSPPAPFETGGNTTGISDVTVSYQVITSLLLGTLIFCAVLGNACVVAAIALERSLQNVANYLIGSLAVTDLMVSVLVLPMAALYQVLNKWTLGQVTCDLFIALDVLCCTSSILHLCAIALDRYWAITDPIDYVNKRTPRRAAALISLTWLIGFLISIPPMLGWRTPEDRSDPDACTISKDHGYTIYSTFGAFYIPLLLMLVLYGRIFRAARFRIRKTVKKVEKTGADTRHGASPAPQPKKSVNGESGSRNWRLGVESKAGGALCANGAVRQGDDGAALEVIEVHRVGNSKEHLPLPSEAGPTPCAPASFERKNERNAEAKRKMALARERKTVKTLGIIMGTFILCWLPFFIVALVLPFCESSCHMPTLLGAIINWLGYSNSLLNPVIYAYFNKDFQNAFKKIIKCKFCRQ
For test [7], the target named is Melanocortin receptor 4 (Homo sapiens) (UniProt P32245). Nature of the test: Displacement of [125I]NDP-alpha-MSH from human recombinant MC 4 receptor at 10 uM measured after 120 mins by scintillation counter method relative to control.
Melanocortin receptor 4 (Homo sapiens), sequence (P32245 whole entry): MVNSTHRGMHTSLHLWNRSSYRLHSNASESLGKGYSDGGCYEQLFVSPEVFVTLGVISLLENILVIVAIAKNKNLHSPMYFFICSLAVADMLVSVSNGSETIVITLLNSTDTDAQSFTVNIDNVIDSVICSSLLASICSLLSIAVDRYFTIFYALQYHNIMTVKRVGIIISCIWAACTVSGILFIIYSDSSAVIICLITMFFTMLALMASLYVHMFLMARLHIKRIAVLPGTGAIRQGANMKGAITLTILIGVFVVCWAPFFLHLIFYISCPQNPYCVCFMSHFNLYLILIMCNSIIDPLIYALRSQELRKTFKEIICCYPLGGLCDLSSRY
Test [8] deals with D(2) dopamine receptor (Homo sapiens) (UniProt P14416). Nature of the test: Displacement of [3H]methyl-spiperone from human recombinant D2S receptor at 10 uM measured after 60 mins by scintillation counter method relative to control.
D(2) dopamine receptor (Homo sapiens), sequence (P14416 whole entry): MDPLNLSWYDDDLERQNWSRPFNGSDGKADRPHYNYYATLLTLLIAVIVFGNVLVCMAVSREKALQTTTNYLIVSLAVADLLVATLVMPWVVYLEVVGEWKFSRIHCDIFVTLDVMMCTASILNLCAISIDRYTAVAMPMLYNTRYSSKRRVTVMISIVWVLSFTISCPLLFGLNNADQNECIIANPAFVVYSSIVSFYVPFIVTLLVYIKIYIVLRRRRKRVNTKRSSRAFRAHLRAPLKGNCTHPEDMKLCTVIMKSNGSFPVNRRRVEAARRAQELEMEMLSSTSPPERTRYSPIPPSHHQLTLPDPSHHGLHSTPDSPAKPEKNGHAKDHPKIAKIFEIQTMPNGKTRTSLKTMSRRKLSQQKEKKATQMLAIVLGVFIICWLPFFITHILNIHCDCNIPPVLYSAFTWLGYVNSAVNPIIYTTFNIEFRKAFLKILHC
The target of test [9] is Adenosine receptor A1 (Homo sapiens) (UniProt P30542). Nature of the test: Displacement of [3H]DPCPX from human recombinant A1 receptor at 10 uM measured after 60 mins by scintillation counter method relative to control.
Adenosine receptor A1 (Homo sapiens), sequence (P30542 whole entry): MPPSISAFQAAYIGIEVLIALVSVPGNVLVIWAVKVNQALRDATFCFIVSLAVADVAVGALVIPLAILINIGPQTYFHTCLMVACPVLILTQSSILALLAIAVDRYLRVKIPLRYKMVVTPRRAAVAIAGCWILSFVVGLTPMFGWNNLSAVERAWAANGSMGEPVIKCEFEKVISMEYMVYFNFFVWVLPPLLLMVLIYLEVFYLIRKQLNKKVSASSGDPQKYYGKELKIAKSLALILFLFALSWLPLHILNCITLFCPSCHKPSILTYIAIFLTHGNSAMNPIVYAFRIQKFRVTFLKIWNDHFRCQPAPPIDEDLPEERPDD

5-hydroxytryptamine receptor 7 (Homo sapiens), sequence (P34969 whole entry): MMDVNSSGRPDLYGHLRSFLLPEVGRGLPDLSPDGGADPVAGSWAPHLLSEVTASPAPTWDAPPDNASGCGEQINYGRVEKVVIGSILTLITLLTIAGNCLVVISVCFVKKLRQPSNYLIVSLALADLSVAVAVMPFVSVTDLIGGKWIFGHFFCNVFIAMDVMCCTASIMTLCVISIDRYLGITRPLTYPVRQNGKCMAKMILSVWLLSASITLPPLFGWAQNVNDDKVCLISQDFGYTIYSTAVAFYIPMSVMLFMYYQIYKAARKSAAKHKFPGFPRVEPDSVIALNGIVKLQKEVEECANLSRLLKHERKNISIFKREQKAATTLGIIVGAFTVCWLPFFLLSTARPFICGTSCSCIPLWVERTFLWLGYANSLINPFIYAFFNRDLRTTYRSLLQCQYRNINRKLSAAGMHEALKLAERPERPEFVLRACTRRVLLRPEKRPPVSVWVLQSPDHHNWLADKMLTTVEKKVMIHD
Muscarinic acetylcholine receptor M3 (Homo sapiens), sequence (P20309 whole entry, looked up): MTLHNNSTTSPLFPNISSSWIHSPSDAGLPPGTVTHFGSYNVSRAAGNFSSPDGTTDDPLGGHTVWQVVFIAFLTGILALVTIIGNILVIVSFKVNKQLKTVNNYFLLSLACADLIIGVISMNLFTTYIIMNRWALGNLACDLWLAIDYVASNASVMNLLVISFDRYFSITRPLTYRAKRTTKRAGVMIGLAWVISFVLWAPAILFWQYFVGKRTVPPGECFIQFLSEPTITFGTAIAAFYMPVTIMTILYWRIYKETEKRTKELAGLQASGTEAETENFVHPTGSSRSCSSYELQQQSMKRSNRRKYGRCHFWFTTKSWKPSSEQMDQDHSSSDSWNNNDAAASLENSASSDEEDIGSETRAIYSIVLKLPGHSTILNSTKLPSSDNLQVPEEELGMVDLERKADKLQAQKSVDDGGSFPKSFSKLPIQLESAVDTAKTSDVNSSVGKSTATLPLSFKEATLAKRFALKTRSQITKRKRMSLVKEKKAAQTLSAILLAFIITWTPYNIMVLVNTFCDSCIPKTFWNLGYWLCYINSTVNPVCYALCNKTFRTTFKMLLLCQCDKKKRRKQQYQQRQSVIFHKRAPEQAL

A word on the inhibition: it is the change of the read-out against control, counted positive when it falls. As for `CC(C)CCO[C@@H]1[C@H]2OC(C)(C)O[C@H]2[C@H]2Cn3cc(nn3)COCCCCCCN(CCc3ccc4ccccc4c3)CC[C@H]1O2`, the inhibition in test [1] amounted to 41.2%; in test [3] it was 22.7%; in test [4], 87.1%; in test [5] it was 98.2%; in test [6], 90.2%; in test [7], 34%. The inhibition was determined as 59.6% in test [8] and 19% in [9]. Moreover, the Activity in test [2] worked out at 7.1%.
